# From patent US20210301038A1, “POLYSIALIC ACID AND DERIVATIVES THEREOF, PHARMACEUTICAL COMPOSITION AND METHOD OF PRODUCING POLYSIALIC ACID” (Medizinische Hochschule Hannover (MHH), priority 2018, published 2021)
# Structures can show the parent of a compound that is named as a salt.
# How the values were obtained:
# [1] = tested on: layer II/III - layer V synapses in mPFC slices; assay: TBS-induced LTP (fEPSP) in sham- and endoNF-treated mPFC slices from C57BL/6 mice; type: cell-based, mouse; settings: endoNF-treated slices; Ro 25-6981 0.3 μM; DP12 1 μg/ml; DP5 1 or 10 μg/ml; sarcosine 0.75 mM; SSR 504734 3 μM
# Experimental: (§1) For endoNF treatment in C57BL/6J mice, slices were first allowed to recover for 20 min at room temperature (22-24° C.) in recording aCSF and were then placed in a 24-well plate to be incubated in 2 ml of aCSF without (sham) or with addition of endoNF (10 μg/ml) at 35° C. for 2 hours. The 24-well plate was installed in a water bath (ED, Julabo, Seelbach, Germany). For field excitatory postsynaptic potential (fEPSP) recordings in knockout and transgenic mice, mPFC slices were incubated in recording aCSF for >2 hours at room temperature before recordings. For patch-clamp recordings in knockout mice, slices were incubated first at 35° C. for 20 min and then at room temperature for >30 min before recordings started. The aCSF was continuously gassed with 95% O2/5% CO2 during all incubation steps and recordings.
# (§2) Prefrontal slices (400 μm) were transferred to a submerged-type recording MC membrane chamber (volume 2 ml; Scientific Systems Design Inc., Mississauga, Ontario, Canada) perfused with oxygenated recording ACSF at a flow rate of 4 ml/min and maintained at room temperature (22-25° C.), unless stated otherwise in the “Results”-section given below. Field EPSPs were evoked and recorded using thin-walled glass electrodes (borosilicate glass, wall thickness 0.188, length 100, and outer diameter 1.5 mm, Hilgenberg, Malsfeld, Germany) filled with recording aCSF in 400 μm-thick mPFC slices. In order to stimulate electrically the input fibers of pyramidal cells, the stimulation electrode (0.3-0.5 MΩ) was inserted into layers II/III of the prelimbic cortex. The recording electrode (2-2.5 MΩ) was placed in the vicinity of dendrites and cell bodies of pyramidal neurons in layer V (Huang et al., 2004).
# (§3) Before LTP induction, basal synaptic transmission was recorded in each slice and the relationship between stimulus intensity and fEPSP slope was measured. Basal fEPSPs were evoked at 0.05 Hz for at least 10 min. The supramaximal slope was determined by gradually increasing the stimulation intensity until a population spike in the fEPSP became first visible. The stimulation intensity was adjusted to elicit a basal fEPSP with a slope of approximately 50% of the supramaximal value.
# (§4) LTP was induced by application of five trains of theta-burst stimulation (TBS) with an inter-theta-train interval of 20 s (Brennaman et al., 2011). Each train consisted of 8 bursts delivered at 5 Hz. Each burst consisted of four pulses delivered at 100 Hz. Duration of pulses was 0.2 ms. For calculation of the LTP level, the mean fEPSP slope was measured between 50-60 min after TBS delivery, and it was then normalized to mean baseline fEPSP slope during 0-10 min before TBS. Stimulus artifacts in representative fEPSP examples in figures were blanked to facilitate the perception of fEPSPs recorded in the mPFC. Recording and analysis of LTP in St8Sia4^−/− mice was performed in a blind manner.
# The enzyme endosialidase NF (endoNF) (Stummeyer et al., 2005) and the short form of polysialic acid composed of 10 or twelve sialic acid residues (DP10 and DP12) were purified as described previously (Keys et al., 2014). Sialic acid (N-acetylneuraminic acid, DP1) and the pentamer of sialic acid sodium salt (DP5) were obtained from EY Laboratories (San Mateo, Calif., USA). DMB-labelled DP2 and DP12, and non-labelled avDP10-9OAc were synthesized in the laboratory of Rita Gerardy-Schahn (see sections Synthesis of DMB-DP2 and DMB-DP12 and Synthesis of avDP10-9OAc, respectively). […]
# [2] = tested on: NMDAR-EPSCs (GluN1/GluN2B receptors); assay: Evoked NMDAR-EPSCs, whole-cell patch-clamp of layer V pyramidal neurons in sham- or endoNF-treated mPFC slices; type: cell-based, mouse; settings: 0.1 μM, in the presence of 5-HT4 antagonist RS 39604 (10 μM)
# Excerpt: Each mouse was quickly sacrificed by cervical dislocation. After decapitation, the brain was rapidly removed from the skull and placed in ice-cold artificial cerebrospinal fluid (aCSF) equilibrated with 95% O2/5% CO2, which was composed of the following (in mM): 250 sucrose, 24 NaHCO3, 25 glucose, 2.5 KCl, 1.25 NaH2PO4, 2 CaCl2, and 1.5 MgCl2 (osmolarity 345-350 mOsm/kg, pH 7.4). Using a VT1200S vibratome (Leica, Nussloch, Germany), coronal slices containing the prelimbic and infralimbic cortices (1.9-1.3 mm anterior to bregma) were cut 350 μm or 400 μm thick, for patch clamp and extracellular recordings, respectively, in the same sucrose-containing aCSF. Then, the slices were transferred to a slice holding chamber filled with recording aCSF (osmolarity 300-305 mOsm/kg, pH 7.4) that contained 120 mM NaCl instead of sucrose (Eckhardt et al., 2000) and was continuously gassed with 95% O2/5% CO2.
# as §1
# For whole-cell patch-clamp recordings, layer V pyramidal neurons were visualized using a SliceScope Pro 6000 equipped with a 40× water-immersion objective and infrared differential interference contrast microscopy (Scientifica, Uckfield, UK). Pyramidal cells were identified by their triangular soma and long apical dendrites, and synaptically evoked excitatory postsynaptic currents (EPSCs) were recorded using patch pipettes (3-5 MQ) fabricated using borosilicate glass capillaries (wall thickness 0.315, length 100, outer diameter 1.5 mm, Hilgenberg) and a DMZ-Zeitz puller (Zeitz Instruments GmbH, Martinsried, Germany). The intracellular pipette solution contained the following (in mM): 140.7 Cs-methane-sulfonate, 5 NaCl, 1 MgCl2, 0.2 EGTA, 10 HEPES, 3 ATP-Mg, 0.3 Na-GTP, and 3.1 QX-314 (osmolarity 295 mOsm/kg, adjusted to pH 7.2 with CsOH). EPSCs were evoked by electrical pulses (0.2 ms) at 0.033 Hz via a glass pipette placed in layer II/III of the mPFC (identically to fEPSPs). Mixed EPSCs showing a fast AMPAR-mediated component and a slow NMDAR-mediated component were recorded at a −60 mV holding potential in whole-cell voltage-clamp mode in normal aCSF. The stimulation intensity was adjusted to evoke mixed EPSCs with amplitudes of approximately 300 pA. The slow NMDAR-mediated component of EPSCs was pharmacologically isolated at −60 mV in modified aCSF containing low Mg^2+ (0.1 mM) and high Ca^2+ (3.2 mM, for adjustment of divalent cation concentrations), the selective antagonist of α-amino-3-hydroxy-5-methyl-4-isoxazolepropionic acid (AMPA)/kainate receptors NBQX (10 μM), and the selective antagonist of γ-aminobutyric acid (GABA)B receptors CGP-55845 (2 μM) (Chen et al., 2003). The washout of Mg^2+ required at least 25 min. Recordings at a holding potential near the resting membrane potential allowed us to obtain stable NMDAR-EPSC recordings from pyramidal cells lasting for 1-1.5 hours. Series resistance (Rs, range 10-25 MΩ) was compensated (20-30%) and monitored continuously. Neurons in which Rs changed by more than 20% throughout the experiment were not included in the analysis. In voltage-clamp mode, membrane potential was not corrected for liquid junction potential. […]
# [3] = tested on: mPFC slices from St8sia4−/− mice; assay: TBS-induced LTP in mPFC slices from ST8SIA4-deficient mice and wild-type littermates; type: cell-based, mouse; settings: Ro 25-6981 0.3 μM, DP12 1 μg/ml, sarcosine 0.75 mM
# Experimental: as §1, §2, §3, §4
# [4] = tested on: C57BL/6J mice with intra-mPFC endoNF injection; assay: Novel object recognition test before and after intra-mPFC endoNF injection; type: in vivo, mouse
# Experimental: Guide cannulas were fabricated using stainless steel tubing with outer/inner diameter Ø 0.711/0.483 mm (Science Products, Germany). Dummy cannulas were made from entomological pins, size 2, Ø 0.41 mm (FST, Germany). Chronic implantation of cannulas into the mPFC in mice was performed as described previously for intrahippocampal injections (Kochlamazashvili et al., 2012; Senkov et al., 2015; Senkov et al., 2006).
# Acute injection of endoNF in vivo was done under a short isoflurane anesthesia. For intra-mPFC injection, we used a digitally controlled infusion system (UltraMicroPump, UMP3, and Micro4 Controller, WPI, USA) fed with a 10 μl-Hamilton syringe and NanoFil 135 μm (35 GA) beveled needle. The thin (135 μm) part of the needle went into the mouse brain during injection, whereas its thick part (430 μm) fit perfectly in the guide cannula (inside 483 μm). Injections were performed as follows: 1) a mouse was anesthetized with 1-3% isoflurane as during implantation; 2) it was put into the stereotaxic frame; 3) the dummy cannula was gently removed from the left guide cannula; 4) a NanoFil injecting needle was carefully placed inside of the guide cannula and advanced further down until reaching the marker (made with a permanent pen at the needle shank (430 μm) to visualize the point when the needle should reach the surface of the brain coming out of the guide cannula (equal to the length of guide cannula); 5) once the marker was reached, a slow (10 μm increment) step dial was used to deepen the needle into the brain; 6) endoNF (2 μg/μl) or vehicle was injected with the following settings: 250 nl per site as deep as 1.5 and 2.25 mm from the brain surface (total injection volume per hemisphere 500 nl, injection rate of 3 nl/s); 7) after injection was complete (˜5 min), the needle was left in the injection site for another 5 min and then gently removed; 8) the dummy cannula was then put back to its place; 9) the same procedure was performed for the right hemisphere. The whole injection process took approximately 20-25 min under isoflurane anesthesia, and the mice recovered rather quickly, starting to move in approximately 2-3 min after being returned to their home cages. Complete recovery of a mouse after such short anesthesia usually occurs within 3-5 min. After injection, mice were returned to their animal facility. Behavior experiments started on the day after injection at approximately the same time, so that we could perform cognitive tests 24 hours after injection.
# A white open field arena (50×50×30 cm) was used in the novel object recognition task. All behavior was video recorded and analyzed automatically by software (ANY-maze, version 4.99, Stoelting Co., Wood Dale, Ill.). […]
Structure (SMILES),LTP level 50-60 min after TBS [1],inhibition of NMDAR-EPSC amplitude ([2]; endoNF-treated slices),inhibition of NMDAR-EPSC amplitude ([2]; sham-treated slices),LTP magnitude ([3]; St8sia4+/+ mice),LTP level 50-60 min after TBS ([3]; St8sia4−/− mice),"novel object recognition after intra-mPFC endoNF injection ([4]; 30 min before encoding, sarcosine 600 mg/kg i.p. (d2), DP12 (d5) and DP1 (d6) 1 mg/kg intranasally)","novel object recognition before endoNF injection ([4]; d-1, 600 mg/kg i.p. 30 min before the encoding phase)"
"O=C(N[C@@H](c1ccccc1)[C@@H]1CCCCN1)c1cccc(C(F)(F)F)c1Cl [SSR 504734, 2-chloro-N—[(S)-phenyl[(2S)-piperidin-2-yl]methyl]-3-trifluoromethyl benzamide]",rescued LTP,,,,,,
"[H]/N=C(/NCCCCC)N/N=C/c1c[nH]c2ccc(OC)cc12 [tegaserod, tegaserod maleate]",,~30%,~50%,,,,
"CNCC(=O)O [sarcosine, N-methylglycine]",fully restored to sham levels,,,no effect,full restoration of LTP levels,fully alleviated,normal object recognition
